Reference: article PMC2443290, “Genistein-Supplemented Diet Decreases Malaria Liver Infection in Mice and Constitutes a Potential Prophylactic Strategy” (PLoS ONE, 2008)
“And” between values parts separate entries of the source, which are not always exact repeats. Equal entries are not always repeated. Where two headings read alike, the source gives them in different places.

How the values were obtained:
[1] = test system: phospho c-met (Tyr1234/1235); experiment: Sporozoite-induced MET phosphorylation in Huh7 cells, Western blot; type: cell-based, human; conditions: four hours after sporozoites
Method: Four hours later total protein extracts were analysed with anti-phospho c-met (Tyr1234/1235) and MET antibodies.
Protein concentrations were determined using the Bio-Rad Laboratories DC protein assay kit and equal amounts of protein extracts ([…]) were separated by 8% SDS-PAGE gels, transferred onto nitrocellulose membranes and processed for Western blotting. The antibody directed to phospho-MET was used at 1∶1000 dilution (#3126; Cell signalling technology, Inc.) and β-chain of human MET was detected with the antibody MET (C-12) at 0,5 μg/mL dilution (#sc-10; Santa Cruz Biotechnology, Inc.). After incubation with the primary antibodies the enhanced chemiluminescence detection system ECL and Kodak films (Amersham Pharmacia Biotech, Piscataway, NJ) were used to visualize proteins on the nitrocellulose blots.

P. yoelii sporozoites = experiment: Mouse liver infection by P. yoelii sporozoites, 18S rRNA qRT-PCR; type: in vivo; conditions: single i.p. dose 200 mg/kg immediately prior to i.v. sporozoites; 40 hours
Method: (§1) C57BL/6 mice were bred and housed in the pathogen-free facilities of the Instituto de Gulbenkian de Ciência following all the EU regulations. The mice were then moved to the Instituto de Medicina Molecular Animal House were all the experiments were performed. All protocols were approved by the IMM Animal Care Committee. […] All mice were infected with 1×10^4 P. berghei ANKA sporozoites between the ages of 7 and 9 weeks old and liver infection was determined 40 hours later. In a parallel set of experiments, sporozoite infection was allowed to proceed to blood stage, to assess the impact of genistein in disease progression.
Forty hours post-sporozoite injection, livers were dissected and homogenized, and total RNA was extracted with an RNeasy Mini kit Quiagen, according to the manufacturer's recommendation. cDNA was obtained by reverse transcription using the First-strand cDNA synthesis kit (Roche) following the manufacturer's instructions. Quantitative RT-PCR reactions were performed for quantification of parasite load, using an ABI PRISM 7000, Applied Biosystem, and specific primers for Plasmodium berghei 18 S rRNA (5′-[…]-3′ and 5′-[…]-3′); or specific primers for P. yoelii 18 S rRNA (5′ –[…]-3′ and 5′-[…]-3′) were used for quantification of parasite load in the livers of mice 40 hours after sporozoite challenge. […]

[2] = test system: P. berghei ANKA sporozoites; experiment: Blood parasitemia, survival and experimental cerebral malaria after sporozoite infection of mice; type: in vivo; conditions: 1000 ppm genistein-supplemented diet
Method: as §1
After sporozoite inoculation, peripheral blood parasitemias were followed daily by counting parasites in Giemsa stained thin blood films. To accurately quantify parasitemia in the first 96 hours post-infection, 50 to 100 microscope fields were examined in each blood film. At later time points, when the levels of parasitemia were higher, 20 microscope fields were counted per mouse. Mice were checked daily for development of ECM symptoms, which include ataxia, paralysis, deviation of the head and convulsions, coma and death.

[3] = Genistein quantification in mouse sera, HPLC/MS; type: in vivo, C57BL/6 mice; conditions: for Genistein Concentration (μM): mouse sera, individual mice
Method: C57BL/6 mice were bred and housed in the pathogen-free facilities of the Instituto de Gulbenkian de Ciência following all the EU regulations. The mice were then moved to the Instituto de Medicina Molecular Animal House were all the experiments were performed. All protocols were approved by the IMM Animal Care Committee. […] All mice were infected with 1×10^4 P. berghei ANKA sporozoites between the ages of 7 and 9 weeks old and liver infection was determined 40 hours later.
“Free” analytes_aglycones, were extracted from the plasma/serum sample with ethyl acetate. The organic phase was evaporated and the dried residue was reconstituted in the mobile phase. For determination of the “total” isoflavones the glucuronide- and sulphate-conjugates were cleaved by enzymatic hydrolysis prior to ethyl acetate extraction. Chromatographic separation was performed by HPLC/MS on a C18-column in the gradient mode. Mass spectrometric detection (Agilent LC/MSD VL single-quadrupole-mass spectrometer equipped with elektrospray-ion source) was carried out with negative electrospray ionisation in the SIM-mode. Specifically, 200 μl of plasma were transferred into a 2 mL Eppendorf tube and 100 μl of enzyme solution were added. For enzymatic cleavage of the glucuronide- and sulphate-conjugates the samples were incubated at 38°C for 3 h, followed by addition of 30 μl internal standard solution. For extraction, 1200 μl ethyl acetate was added to the sample, shaken for 5 min at 300 rpm and centrifuged for 10 min at 10000 rpm and 10°C. 1000 μl of the supernatant was transferred into a 2 ml Eppendorf tube and evaporated at 30–35°C to dryness with a Vortex-Evaporator or Speed Vac. The dried residue was reconstituted in 150 μl mobile phase, briefly vortexed, and transferred into an HPLC vial. Forty to 75 μl were injected onto the analytical column and analyzed by HPLC-MS [35]. Data acquisition of extracted ion chromatograms, integration and quantification was performed with the Chemstation Software (Version 9.03 or higher) from Agilent Technologies.

[4] = test system: P. berghei ANKA sporozoites; experiment: In vitro infection of Hepa1-6 cells by P. berghei ANKA sporozoites, EEF counting; type: cell-based
Method: (§2) HepG2, and Hepa1-6 cells (human and mouse hepatoma cell lines, respectively) were maintained in DMEM 10% FCS, 1% Penicillin/Streptomycin and 1 mM glutamine. HepG2 or Hepa1-6 cells (2×10^5) were seeded in 24-well plates and allowed to adhere for 24 hours before infection. Huh7 cells (human hepatoma cell line) were maintained in RPMI 10% FCS, 1% Penicillin/Streptomycin and 1 mM glutamine. Huh7 cells (1,75×10^5) were seeded in 24-well plates and allowed to adhere for 24 hours before infection. Green fluorescent protein (GFP)-expressing P. berghei ANKA sporozoites were obtained from the dissection of infected Anopheles stephensi mosquito salivary glands.
(§3) P. berghei ANKA sporozoites (4×10^4/well) were added to monolayers of Hepa1-6 or HepG2 cells in 24-well plates. […] As control, an equivalent volume of DMSO (dimethylsulphoxide) was added. […] In all experiments, genistein was left in the cultures since the time of addition until the cells were fixed for quantification of infection. Infection was quantified by counting the total number of EEFs per coverslip using fluorescence microscopy (magnification 400×). […] The level of infection was measured as described above, 24 hours post-infection with sporozoites. Quantification of the area of 100 individual EEFs of each group was performed using ImageJ 1.36b software. The results are expressed as areas in μm^2.

[5] = test system: P. berghei ANKA sporozoites; experiment: Pre-treatment of sporozoites with genistein, then infection of HepG2 cells; type: cell-based; conditions: sporozoites incubated with 100 μM for 30 min, washed, added to HepG2 cells; 24 hours
Method: (§4) Twenty four hours later the number of adherent cells was determined in 10 fields per coverslip, in triplicates. […] Control sporozoites were treated with equivalent volume of DMSO. After 30 min of incubation, sporozoites were washed and added to a monolayer of HepG2 cells seeded 24 hours before. Infection was assessed 24 hours later by determining the number of EEFs in each well.

[6] = test system: P. berghei ANKA sporozoites; experiment: Mouse liver infection by P. berghei ANKA sporozoites, 18S rRNA qRT-PCR; type: in vivo
Method: as §1
Forty hours post-sporozoite injection, livers were dissected and homogenized, and total RNA was extracted with an RNeasy Mini kit Quiagen, according to the manufacturer's recommendation. cDNA was obtained by reverse transcription using the First-strand cDNA synthesis kit (Roche) following the manufacturer's instructions. Quantitative RT-PCR reactions were performed for quantification of parasite load, using an ABI PRISM 7000, Applied Biosystem, and specific primers for Plasmodium berghei 18 S rRNA (5′-[…]-3′ and 5′-[…]-3′); or specific primers for P. yoelii 18 S rRNA (5′ –[…]-3′ and 5′-[…]-3′) were used for quantification of parasite load in the livers of mice 40 hours after sporozoite challenge. The amplification program consisted of incubation at 50°C for 2 min, 95°C for 10 min, followed by 50 cycles at 95°C for 15 s and 60°C for 1 min. For external standardization, plasmids encoding cDNA fragments cloned into TOPO TA, Invitrogen; corresponding to the amplified regions of the corresponding genes, were utilized. Copy numbers were calculated comparing the cycle numbers of the log-linear phase of the samples with the cycle numbers of the external standards.

HepG2 cells = experiment: Viability of genistein-treated HepG2 cells, number of adherent cells; type: cell-based, human; conditions: 25 μM or 250 μM, 24 hours
Method: as §4

[7] = test system: P. berghei ANKA-infected red blood cells (iRBC); experiment: Blood stage infection of mice with P. berghei ANKA iRBC; type: in vivo; conditions: 1000 ppm genistein-supplemented diet; 1×10^6 iRBC i.p.
Method: Peripheral blood parasitemia and ECM symptoms were determined as described above.

[8] = test system: P. berghei ANKA sporozoites; experiment: In vitro infection of HepG2 cells by P. berghei ANKA sporozoites, EEF counting; type: cell-based; conditions: 25 μM
Method: as §2
P. berghei ANKA sporozoites (4×10^4/well) were added to monolayers of Hepa1-6 or HepG2 cells in 24-well plates. […] As control, an equivalent volume of DMSO (dimethylsulphoxide) was added. After 24 hours cells were fixed and stained with mouse anti-EEF (exo-erythrocytic forms of the parasite) antibody (2E6), followed by an anti-mouse secondary antibody. In all experiments, genistein was left in the cultures since the time of addition until the cells were fixed for quantification of infection. Infection was quantified by counting the total number of EEFs per coverslip using fluorescence microscopy (magnification 400×). […] The level of infection was measured as described above, 24 hours post-infection with sporozoites. Quantification of the area of 100 individual EEFs of each group was performed using ImageJ 1.36b software. The results are expressed as areas in μm^2.

Huh7 cells = experiment: Cell death of Huh7 cells, propidium iodide flow cytometry; type: cell-based, human; conditions: 24 hours
[9] = test system: P. berghei ANKA sporozoites; experiment: In vitro infection of Huh7 cells by P. berghei ANKA sporozoites, EEF counting; type: cell-based
Method: as §2, §3

P. yoelii = experiment: IC50 of infection of Hepa1-6 cells by P. yoelii, 18S rRNA qRT-PCR; type: cell-based; conditions: Plasmodium yoelii, Hepa1-6, 24 h, P. yoelii infection of Hepa1-6 cells, read-out: IC50 (inhibition of infection)
[10] = adults; daily ingestion of up to 54 mg; cited from earlier work
P. berghei ANKA = experiment: IC50 of infection of Huh7 cells by P. berghei ANKA, 18S rRNA qRT-PCR; type: cell-based; conditions: Plasmodium berghei
Method: (§5) This was performed in parallel to experiments where primaquine was tested in P. berghei infection of Huh7 cells. […] In addition to hepatoma cell lines primary mouse hepatocyte cultures were also used.
Black circles represent the mean of P. berghei ANKA18S rRNA expression in each condition (n = 3). […] Black circles represent the mean of P. berghei ANKA18S rRNA expression in each condition (n = 3).

P. berghei sporozoites = type: cell-based; conditions: data not shown
Method: as §5

[11] = test system: P. berghei ANKA expressing GFP sporozoites; experiment: FACS analysis of Huh7 cells infected with PbGFP sporozoites (invasion and GFP intensity); type: cell-based
Method: FACS analysis at 2, 6, 30 and 44 hours after sporozoite addition was performed to determine the percentage of parasite-containing cells and parasite-GFP intensity within infected cells. Cell samples for FACS analysis were processed as previously described.

SMILES: O=c1c(-c2ccc(O)cc2)coc2cc(O)cc(O)c12 [genistein]
- sporozoite-induced Met phosphorylation [1]: inhibited by genistein
- parasite load in the liver (P. yoelii sporozoites): reduced infection
- survival ([2]; 25 days after infection): 56%
- appearance of blood parasitemia ([2]; i.v. sporozoites): significantly reduced
- mice protected from developing cerebral malaria ([2]; i.v. sporozoites): Fifty-six
- genistein amounts in sera ([3]; genistein supplemented diet): ≤ 5 µM
- Genistein Concentration (μM) ([3]; single oral dose 200 mg/kg, 2 h after gavage, 200 mg/kg): 7,07 μM and 15,00 μM and 13,25 μM and 7,23 μM
- Genistein Concentration (μM) ([3]; single oral dose 200 mg/kg, 6 h after gavage, 200 mg/kg): 0,57 μM and 0,32 μM and 0,45 μM and 2,29 μM
- Genistein Concentration (μM) ([3]; supplemented diet 1000 ppm, 7–9 weeks old mice): 3,32 μM and 1,99 μM and 1,35 μM and 2,26 μM and 3,02 μM and 1,34 μM and 3,14 μM and 3,75 μM and 0,20 μM and 1,11 μM and 0,84 μM and 1,37 μM and 0,68 μM and 1,16 μM and 1,42 μM
- EEF size (area) ([4]; Hepa1-6, 25 μM, 24 hours after infection): significantly smaller
- Hepa1-6 cell infection (total number of EEFs) ([4]; increasing doses of genistein, 24 hours after sporozoite addition): significantly inhibits Hepa1-6 cell infection in a dose-dependent manner
- infection level (EEF number) with pre-treated sporozoites [5]: no significant difference
- relation of degree of liver infection to genistein levels in sera ([6]; 1000 ppm genistein-supplemented diet): inversely correlated
- liver parasite load ([6]; 1000 ppm genistein-supplemented diet, 40 hours after sporozoite injection): significantly reduced
- parasite load in the liver ([6]; single i.p. dose 200 mg/kg immediately prior to i.v. sporozoites, 40 hours): reduced infection
- reduction of liver infection ([6]; single oral dose 200 mg/kg 6 hours prior to sporozoite inoculation, 40 hours after infection): 64%
- number of adherent cells (HepG2 cells): constant number of cells
- development of parasitemia after iRBC infection [7]: no significant difference
- infection, drug removed at different times after infection ([8]; HepG2, added at sporozoite addition and washed at various time-points): reduced infection when it was present during the first 4 hours of infection
- infection, drug added at different times after sporozoite addition ([8]; HepG2, added prior to infection or up to 6 hours after sporozoite addition): significantly reduced infection to approximately the same extent
- reduction in infection ([8]; HepG2 cells, 24 hours after infection): 74±8%
- proportion of cell death (Huh7 cells): constant proportion of cell death
- infection after pre-treatment of cells ([9]; Huh7 cells pre-treated 2 h with 25 μM, washed before sporozoite addition, 24 hours): small but significant reduction of infection
- reduction in infection ([9]; Huh7 cells, 25 μM, 24 hours after infection): 68±4%
- IC50 (P. yoelii): ~30 µM
- adverse effects [10]: No obvious adverse effects
- IC50 (P. berghei ANKA; Huh-7, 24 h, read-out: IC50 (inhibition of infection), P. berghei ANKA infection of Huh7 cells): ~20 µM
- infection of primary mouse hepatocytes (P. berghei sporozoites): reduced the infection of these cells
- increase in GFP intensity of infected cells (parasite development) ([11]; 6, 30 and 44 hours after sporozoite addition): significantly less pronounced
- invasion rate (GFP positive cells) ([11]; 2 hours post-infection): equally invaded

SMILES: COc1cc(NC(C)CCCN)c2ncccc2c1 (stereo not shown) [primaquine]
- IC50 (P. berghei ANKA; Huh-7, P. berghei ANKA infection of Huh7 cells, 24 hours, read-out: IC50 (inhibition of infection)): 13 µM
